Source: the RepoRT retention time repository (doi:10.1021/acs.analchem.1c00972)

Assay: RP, Waters ACQUITY UPLC BEH C18, 100 × 1 mm, 1.7 µm, 50 °C, 0.3 mL/min, estimated dead time 0.17 min; A: water + 10 mM ammonium bicarbonate; B: 10% water + 90% methanol + 10 mM ammonium bicarbonate; gradient (min/%B) 0/0 15/100 21/100 22/0 30/0
Settings: stereoisomer not certain

| LC retention time [min] | SMILES |
| --- | --- |
| 18.2 | CC1COCc2cc3c(cc21)C(C)(C)C(C)C3(C)C (stereo not given) [Galaxolide] |
| 4.27 | COc1ccc(S(=O)(=O)O)cc1 [4-Methoxybenzenesulfonic acid] |
| 13.4 | CSc1nc(N)nc(NC(C)(C)C)n1 [Irgarol-Metabolit 1 (Terbutryn-desethyl)] |
| 11.7 | NC(=O)N1c2ccccc2CC(=O)c2ccccc21 [Oxcarbazepine] |
| 15.4 | CSc1nc(NC2CC2)nc(NC(C)(C)C)n1 [Irgarol] |
| 8.1 | COC(=O)c1ccccc1S(N)(=O)=O [Methyl 2-(aminosulfonyl)benzoate] |
| 11.4 | c1ccc2ncccc2c1 [Chinolin] |
| 7.42 | Cc1c(C(=O)c2c[nH]n(C)c2=O)ccc(S(C)(=O)=O)c1C1=NOCC1 [Topramezone] |
| 6.8 | OCCc1ccccn1 [2-(2-Pyridyl)ethanol] |
| 15.4 | Oc1ccc(C=Cc2cc(O)cc(O)c2)cc1 [Resveratrol] |
| 12.6 | NC(=O)N1c2ccccc2C=Cc2ccccc21 [Carbamazepin] |
| 9.9 | CCOc1ccc(NC(C)=O)cc1 [Phenacetin] |
| 8.17 | CCNc1nc(N)nc(Cl)n1 [Desisopropylatrazine] |
| 12.8 | NS(=O)(=O)c1ccccc1 [Benzenesulfonamide] |
| 13.4 | CCN(CC)C(=O)c1cccc(C)c1 [DEET] |
| 16.3 | O=C(OCc1ccccc1)c1ccccc1 [Benzoic acid benzyl ester] |
| 11.2 | CC(=O)N(C)c1ccccc1 [N-Methylacetanilide] |
| 9.67 | NS(=O)(=O)c1cc(C2(O)NC(=O)c3ccccc32)ccc1Cl (stereo not given) [Chlorthalidon] |
| 11.2 | O=C(O)c1cccc(Oc2ccccc2)c1 [3-Phenoxybenzoic acid] |
| 4.21 | CC1(C)CC(O)CC(C)(C)N1 [2,2,6,6-Tetramethylpiperidin-4-ol] |
| 5.67 | C=CC1=C(C(=O)O)N2C(=O)C(NC(=O)C(=NOCC(=O)O)c3csc(N)n3)C2SC1 (stereo not given) [Cefixim] |
| 11.5 | CCCCOCCOCCOCCO [Triethylene Glycol Monobutyl Ether] |
| 13.3 | Cc1ccc(C)c(O)c1C [2,3,6-Trimethylphenol] |
| 8.34 | CCN1CCN(C(=O)NC(C(=O)NC2C(=O)N3C(C(=O)O)=C(CSc4nnnn4C)CSC23)c2ccc(O)cc2)C(=O)C1=O (stereo not given) [Cefoperazone] |
| 5.94 | Cc1nnc(NS(=O)(=O)c2ccc(N)cc2)s1 [Sulfamethizol] |
| 10.4 | NC12CC3CC(C1)CC(O)(C3)C2 [3-Amino-1-adamantanol] |
| 2.02 | CC(Cn1cnc2c(N)ncnc21)OCP(=O)(O)O (stereo not given) [Tenofovir] |

| LC retention time [min] | SMILES |
| --- | --- |
| 13.5 | O=S(=O)(O)c1ccccc1C=Cc1ccc(-c2ccc(C=Cc3ccccc3S(=O)(=O)O)cc2)cc1 [Fluorescent brightener 351] |
| 14.2 | CC12CCC3c4ccc(O)cc4CCC3C1CCC2=O (stereo not given) [Estrone] |
| 3.77 | CS(=O)(=O)OCC(O)C(O)COS(C)(=O)=O (stereo not given) [Treosulfan] |
| 13.9 | CNCC(O)c1ccc(O)c(O)c1 (stereo not given) [Epinephrine] |
| 14.9 | CCN(CC)CC(=O)Nc1c(C)cccc1C [Lidocaine] |
| 10.5 | NC12CC3CC(CC(C3)C1)C2 [Amantadine] |
| 12.3 | CCN(CC)CCNC(=O)c1cc(Cl)c(N)cc1OC [Metoclopramide] |
| 7.4 | Cc1cc(C)nc(NS(=O)(=O)c2ccc(N)cc2)n1 [Sulfamethazine] |
| 6.11 | Cn1c(=O)c2[nH]cnc2n(C)c1=O [Theophyllin] |
| 13.1 | CNC(=O)Nc1ccc(C(C)C)cc1 [1-(4-Isopropylphenyl)-3-methyl-Harnstoff] |
| 11.5 | CCC(C)Nc1nc(N)nc(Cl)n1 (stereo not given) [Desethylsebutylazin] |
| 6.64 | Nc1ccc(S(=O)(=O)Nc2ccccn2)cc1 [Sulfapyridine] |
| 14.2 | CC(=O)SC1CC2=CC(=O)CCC2(C)C2CCC3(C)C(CCC34CCC(=O)O4)C12 (stereo not given) [Spironolactone] |
| 14 | CCCCOC(=O)C=Cc1ccccc1 [Butyl cinnamate] |
| 9.17 | CCCCCCS(=O)(=O)O [1-Hexanesulfonic acid] |
| 16.8 | CCCCCCCCCCCC[N+](C)(C)[O-] [N,N-Dimethyldodecylamine N-oxide] |
| 11.2 | Cc1ccc(NC=O)c(C)c1 [2,4-Dimethylformanilide] |
| 11.1 | c1ccc2scnc2c1 [Benzothiazol] |
| 13 | O=C(O)CC[C@@H](C(=O)O)N(CC(=O)O)CC(=O)O [N,N-Bis(carboxymethyl)-L-glutamic acid] |
| 7.52 | CC1=C(C(=O)O)N2C(=O)C(NC(=O)C(N)c3ccccc3)C2SC1 (stereo not given) [Cefalexin] |
| 9.52 | CCOc1nc2cccc(C(=O)O)c2n1Cc1ccc(-c2ccccc2-c2noc(=O)[nH]2)cc1 [Azilsartan] |
| 7.74 | CC(C)NCC(O)c1ccc(NS(C)(=O)=O)cc1 (stereo not given) [Sotalol] |
| 17 | C=C(c1ccc(C(=O)O)cc1)c1cc2c(cc1C)C(C)(C)CCC2(C)C [Bexarotene] |
| 5.51 | CC(=O)N(CC(O)CO)c1c(I)c(C(=O)NCC(O)CO)c(I)c(C(=O)NCC(O)CO)c1I (stereo not given) [Iohexol] |
| 7.87 | CC1(C)CC(=O)CC(C)(C)N1 [2,2,6,6-Tetramethyl-4 piperidone] |
| 9.28 | C[N+](C)(C)C[C@H](O)CC(=O)[O-] [L-Carnitin] |
| 9.95 | CC(C)Nc1nc(N)nc(Cl)n1 [Desethylatrazine] |

| SMILES | LC retention time [min] |
| --- | --- |
| Nc1ccccc1Cl [2-Chloroaniline] | 10.6 |
| Nc1ccc(Cl)cc1 [4-Chloroaniline] | 10.6 |
| COC(=O)Nc1cccc(OC(=O)Nc2cccc(C)c2)c1 [Phenmedipham] | 13.6 |
| Cc1cc(C)nc(Nc2ccccc2)n1 [Pyrimethanil] | 14.2 |
| CC1(C)CON(Cc2ccccc2Cl)C1=O [Clomazone] | 13.9 |
| CC1C(c2ccc(Cl)cc2)SC(=O)N1C(=O)NC1CCCCC1 (stereo not given) [Hexythiazox] | 17.6 |
| Cc1cc(Cl)ccc1N [4-Chloro-2-methylaniline] | 12.3 |
| COCC(C)N(C(=O)CCl)c1c(C)csc1C (stereo not given) [Dimethenamid] | 14.4 |
| CC(=O)c1cc2c(cc1C)C(C)(C)C(C)CC2(C)C (stereo not given) [Tonalide] | 18.2 |
| CCN(CC)C(=O)C(C)Oc1cccc2ccccc12 (stereo not given) [Napropamide] | 15.1 |
| CN(C)C(=O)Nc1ccc(Cl)cc1 [Monuron] | 11.3 |
| Nc1ccccc1C(=O)O [Anthranilic acid] | 2.1 |
| CCC(CC)Nc1c([N+](=O)[O-])cc(C)c(C)c1[N+](=O)[O-] [Pendimethalin] | 17.5 |
| O=c1[nH]c2c(c(=O)n1C1CCCCC1)CCC2 [Lenacil] | 13.1 |
| CCC(C)c1ccccc1OC(=O)NC (stereo not given) [Fenobucarb] | 15 |
| Cc1ccccc1N [o-Toluidine] | 9.21 |
| CCCC(C)(COC(N)=O)COC(=O)NC(C)C (stereo not given) [Carisoprodol] | 13.3 |
| CCOP(=S)(OCC)SCn1nnc2ccccc2c1=O [Ethyl azinphos] | 15 |
| FC(F)(F)c1cccc(N2CCNCC2)c1 [1-(3-Trifluoromethylphenyl)-piperazine] | 10.6 |
| CCOP(=S)(OCC)Oc1ccc2c(C)c(Cl)c(=O)oc2c1 [Coumaphos] | 15.9 |
| CCNc1nc(Cl)nc(NC(C)C)n1 [Atrazine] | 13.1 |

| SMILES | LC retention time [min] |
| --- | --- |
| Cc1nnc(-c2ccccc2)c(=O)n1N [Metamitron] | 9 |
| CN1C(=O)CN=C(c2ccccc2)c2cc(Cl)ccc21 [Diazepam] | 14.6 |
| Cc1ccccc1N=C=O [o-Tolyl isocyanate] | 8.18 |
| C=CC1C(OC2OC(CO)C(O)C(O)C2O)OC=C2C(=O)OCCC21 (stereo not given) [Sweroside] | 8.69 |
| CCOP(=S)(OCC)SCSP(=S)(OCC)OCC [Ethion] | 17.3 |
| CC(N)C(O)c1ccccc1 (stereo not given) [Cathine] | 8.36 |
| CCC1(c2cccc(O)c2)CCCCN(C)C1 (stereo not given) [Meptazinole] | 14.4 |
| CNC(=O)Oc1ccc(N(C)C)c(C)c1 [Aminocarb] | 12.1 |
| Cc1cccc(C)c1N(Cn1cccn1)C(=O)CCl [Metazachlor] | 13.3 |
| CNC(C)C(O)c1ccccc1 (stereo not given) [Ephedrine] | 13.1 |
| Nc1cccc(Cl)c1 [3-Chloroaniline] | 10.6 |
| CC#Cc1cc(C)nc(Nc2ccccc2)n1 [Mepanipyrim] | 15 |
| CNC(=O)Oc1cc(C)cc(C(C)C)c1 [Promecarb] | 15 |
| Oc1ccc(C(c2ccccc2)(c2ccccc2)c2ccc(O)cc2)cc1 [Bisphenol BP] | 15.9 |
| Cc1cc(C(C)(C)c2ccc(O)c(C)c2)ccc1O [Bisphenol C] | 13.9 |
| CNC(=O)ON=C(C)C(C)S(C)(=O)=O (stereo not given) [Butoxycarboxim] | 9.41 |
| Oc1ccc(Cl)cc1Cl [2,4-Dichlorophenol] | 12.3 |
| COC(=O)C(C)N(C(=O)Cc1ccccc1)c1c(C)cccc1C (stereo not given) [Benalaxyl] | 16 |
| COc1ccc2c3c1OC1C(=O)CCC4C(C2)N(C)CCC314 (stereo not given) [Hydrocodone] | 12.1 |
| CC=C1N(C)C(C)CC1(c1ccccc1)c1ccccc1 (stereo not given) [EDDP] | 17.4 |
